# Measurements published in paper PMC8222254, “Self-assembly of an anion receptor with metal-dependent kinase inhibition and potent in vitro anti-cancer properties” (Nature Communications, 2021).
# Values joined by “and” are separate entries in the source; they are usually repeats but may differ in a detail not shown here. Identical values can stand only once.
# What was measured:
# Test in all cases: Kinase inhibition screen, cell-free 33P ATP assay at 10 μM
# Type in all cases: biochemical
# [1] = biological target: 140 purified human kinases (Homo sapiens, UniProt O75116); details: ROCK 2
# Procedure, shortened: (§1)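 Radiometric ^33P ATP cell-free format with purified enzymes; both complexes run at 10 μM in duplicate, results plotted on a kinome map via HGNC symbols.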
# [2] = biological target: T1, 140 purified human kinases (Homo sapiens, UniProt P33981); details: TTK
# T1 sequence (P33981 1-857): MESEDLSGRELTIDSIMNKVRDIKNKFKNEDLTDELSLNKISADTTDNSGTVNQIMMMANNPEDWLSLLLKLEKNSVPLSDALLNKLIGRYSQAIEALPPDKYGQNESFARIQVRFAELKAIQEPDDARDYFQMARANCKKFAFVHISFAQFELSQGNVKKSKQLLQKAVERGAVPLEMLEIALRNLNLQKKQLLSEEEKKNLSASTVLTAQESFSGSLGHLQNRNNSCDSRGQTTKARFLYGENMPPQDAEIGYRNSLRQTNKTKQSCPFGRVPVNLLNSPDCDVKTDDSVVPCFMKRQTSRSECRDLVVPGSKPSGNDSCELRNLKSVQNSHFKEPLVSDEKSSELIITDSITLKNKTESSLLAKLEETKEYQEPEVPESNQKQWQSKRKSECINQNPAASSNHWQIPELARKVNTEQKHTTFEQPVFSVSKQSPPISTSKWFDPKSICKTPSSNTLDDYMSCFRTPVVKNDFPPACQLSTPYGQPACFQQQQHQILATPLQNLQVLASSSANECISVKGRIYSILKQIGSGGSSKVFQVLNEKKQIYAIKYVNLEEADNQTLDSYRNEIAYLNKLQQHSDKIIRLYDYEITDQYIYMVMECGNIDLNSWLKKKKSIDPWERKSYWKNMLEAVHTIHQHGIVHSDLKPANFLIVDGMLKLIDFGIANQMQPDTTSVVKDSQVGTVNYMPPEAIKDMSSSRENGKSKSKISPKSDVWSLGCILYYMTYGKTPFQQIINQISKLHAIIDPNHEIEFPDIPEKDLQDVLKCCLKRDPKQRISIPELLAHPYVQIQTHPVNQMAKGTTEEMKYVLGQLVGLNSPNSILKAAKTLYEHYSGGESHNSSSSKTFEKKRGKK
# Procedure, shortened: as §1
# [3] = biological target: 140 purified human kinases (Homo sapiens, UniProt P78368)
# Procedure, shortened: as §1
# [4] = biological target: T2, 140 purified human kinases (Homo sapiens, UniProt Q12851); details: GCK
# T2 sequence (Q12851 1-820): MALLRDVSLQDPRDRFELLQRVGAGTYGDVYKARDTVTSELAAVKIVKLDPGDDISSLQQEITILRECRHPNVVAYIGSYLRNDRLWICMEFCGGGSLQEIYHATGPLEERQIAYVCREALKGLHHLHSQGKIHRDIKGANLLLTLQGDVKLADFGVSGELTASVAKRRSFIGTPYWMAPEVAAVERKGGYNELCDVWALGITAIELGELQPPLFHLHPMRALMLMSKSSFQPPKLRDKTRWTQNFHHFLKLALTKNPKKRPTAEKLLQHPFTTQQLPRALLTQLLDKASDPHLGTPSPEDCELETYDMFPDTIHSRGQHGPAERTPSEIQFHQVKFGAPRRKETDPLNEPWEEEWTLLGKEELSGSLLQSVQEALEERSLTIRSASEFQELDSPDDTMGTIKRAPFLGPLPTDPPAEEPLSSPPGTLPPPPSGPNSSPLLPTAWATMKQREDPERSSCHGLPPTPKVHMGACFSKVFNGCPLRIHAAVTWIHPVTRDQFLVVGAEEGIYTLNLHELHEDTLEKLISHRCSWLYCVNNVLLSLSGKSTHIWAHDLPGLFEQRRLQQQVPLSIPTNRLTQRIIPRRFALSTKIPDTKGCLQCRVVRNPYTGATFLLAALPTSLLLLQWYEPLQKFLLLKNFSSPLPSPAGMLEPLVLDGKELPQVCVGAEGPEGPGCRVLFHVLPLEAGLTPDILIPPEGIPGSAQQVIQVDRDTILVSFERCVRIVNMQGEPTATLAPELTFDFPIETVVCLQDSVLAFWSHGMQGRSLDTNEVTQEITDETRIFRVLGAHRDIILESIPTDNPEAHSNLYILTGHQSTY
# Procedure, shortened: as §1
# [5] = biological target: 140 purified human kinases (Homo sapiens, UniProt Q15303)
# Procedure, shortened: as §1
# [6] = biological target: T3, 140 purified human kinases (Homo sapiens, UniProt Q8IW41); details: PRAK
# T3 sequence (Q8IW41 1-473): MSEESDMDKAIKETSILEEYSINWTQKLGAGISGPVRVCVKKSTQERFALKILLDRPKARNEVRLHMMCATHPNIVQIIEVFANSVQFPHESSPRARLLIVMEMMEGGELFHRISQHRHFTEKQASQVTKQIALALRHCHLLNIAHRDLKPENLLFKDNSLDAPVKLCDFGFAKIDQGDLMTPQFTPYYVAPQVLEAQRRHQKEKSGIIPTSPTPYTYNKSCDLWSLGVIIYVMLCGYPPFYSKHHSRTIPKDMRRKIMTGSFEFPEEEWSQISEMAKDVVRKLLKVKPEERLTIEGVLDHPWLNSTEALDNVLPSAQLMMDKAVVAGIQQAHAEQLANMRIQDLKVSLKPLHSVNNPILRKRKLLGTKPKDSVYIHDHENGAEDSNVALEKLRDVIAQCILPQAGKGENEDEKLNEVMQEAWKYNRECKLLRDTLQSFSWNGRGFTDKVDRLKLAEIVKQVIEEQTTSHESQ
# Procedure, shortened: as §1
# 140 purified human kinases (Homo sapiens, UniProt P78368), sequence (P78368 whole entry): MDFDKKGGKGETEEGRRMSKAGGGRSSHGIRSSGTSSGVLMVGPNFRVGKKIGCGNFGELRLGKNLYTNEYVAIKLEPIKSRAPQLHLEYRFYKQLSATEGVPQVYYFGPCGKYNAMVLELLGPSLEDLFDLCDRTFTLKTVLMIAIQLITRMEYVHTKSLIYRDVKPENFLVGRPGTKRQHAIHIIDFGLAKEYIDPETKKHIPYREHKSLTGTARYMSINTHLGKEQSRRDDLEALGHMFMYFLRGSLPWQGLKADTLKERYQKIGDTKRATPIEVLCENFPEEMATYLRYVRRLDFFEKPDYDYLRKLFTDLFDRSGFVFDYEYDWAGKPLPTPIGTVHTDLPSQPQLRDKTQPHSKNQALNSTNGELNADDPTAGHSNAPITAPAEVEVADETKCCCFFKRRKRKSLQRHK
# 140 purified human kinases (Homo sapiens, UniProt O75116), sequence (O75116 whole entry): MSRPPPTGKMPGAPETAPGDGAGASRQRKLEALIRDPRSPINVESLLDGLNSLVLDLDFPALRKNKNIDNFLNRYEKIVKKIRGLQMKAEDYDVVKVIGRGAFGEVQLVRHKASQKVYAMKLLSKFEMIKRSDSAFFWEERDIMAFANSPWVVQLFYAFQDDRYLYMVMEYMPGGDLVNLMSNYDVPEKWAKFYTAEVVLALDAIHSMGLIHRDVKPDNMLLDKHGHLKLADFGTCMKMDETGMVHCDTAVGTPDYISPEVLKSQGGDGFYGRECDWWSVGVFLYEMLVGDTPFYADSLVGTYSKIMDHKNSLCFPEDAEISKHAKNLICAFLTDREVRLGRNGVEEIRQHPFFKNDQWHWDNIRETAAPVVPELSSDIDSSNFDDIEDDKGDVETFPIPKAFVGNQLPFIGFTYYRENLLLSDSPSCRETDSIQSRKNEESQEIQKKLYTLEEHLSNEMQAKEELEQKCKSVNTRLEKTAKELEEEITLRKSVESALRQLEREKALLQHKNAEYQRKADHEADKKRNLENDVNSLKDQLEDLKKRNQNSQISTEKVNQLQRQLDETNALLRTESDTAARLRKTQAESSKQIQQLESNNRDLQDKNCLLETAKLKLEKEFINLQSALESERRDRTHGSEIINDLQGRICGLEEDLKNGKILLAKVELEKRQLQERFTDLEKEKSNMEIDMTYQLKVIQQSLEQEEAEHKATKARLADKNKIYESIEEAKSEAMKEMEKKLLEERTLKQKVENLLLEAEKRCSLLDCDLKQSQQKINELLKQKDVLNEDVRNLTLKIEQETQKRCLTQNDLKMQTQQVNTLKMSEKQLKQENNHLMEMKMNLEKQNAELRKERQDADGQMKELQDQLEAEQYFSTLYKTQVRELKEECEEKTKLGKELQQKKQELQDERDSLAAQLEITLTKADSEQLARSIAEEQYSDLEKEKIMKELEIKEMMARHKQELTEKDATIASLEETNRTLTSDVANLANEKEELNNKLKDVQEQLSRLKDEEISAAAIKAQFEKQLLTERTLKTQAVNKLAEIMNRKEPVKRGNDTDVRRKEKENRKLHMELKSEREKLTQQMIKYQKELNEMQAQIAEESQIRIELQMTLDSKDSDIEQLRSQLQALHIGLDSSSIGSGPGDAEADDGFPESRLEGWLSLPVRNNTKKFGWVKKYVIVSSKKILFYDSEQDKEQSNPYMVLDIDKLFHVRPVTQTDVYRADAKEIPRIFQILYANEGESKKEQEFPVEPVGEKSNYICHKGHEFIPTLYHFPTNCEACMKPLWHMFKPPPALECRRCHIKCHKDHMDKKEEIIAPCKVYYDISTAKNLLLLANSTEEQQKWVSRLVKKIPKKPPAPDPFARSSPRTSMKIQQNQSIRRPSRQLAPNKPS
# 140 purified human kinases (Homo sapiens, UniProt Q15303), sequence (Q15303 26-1308): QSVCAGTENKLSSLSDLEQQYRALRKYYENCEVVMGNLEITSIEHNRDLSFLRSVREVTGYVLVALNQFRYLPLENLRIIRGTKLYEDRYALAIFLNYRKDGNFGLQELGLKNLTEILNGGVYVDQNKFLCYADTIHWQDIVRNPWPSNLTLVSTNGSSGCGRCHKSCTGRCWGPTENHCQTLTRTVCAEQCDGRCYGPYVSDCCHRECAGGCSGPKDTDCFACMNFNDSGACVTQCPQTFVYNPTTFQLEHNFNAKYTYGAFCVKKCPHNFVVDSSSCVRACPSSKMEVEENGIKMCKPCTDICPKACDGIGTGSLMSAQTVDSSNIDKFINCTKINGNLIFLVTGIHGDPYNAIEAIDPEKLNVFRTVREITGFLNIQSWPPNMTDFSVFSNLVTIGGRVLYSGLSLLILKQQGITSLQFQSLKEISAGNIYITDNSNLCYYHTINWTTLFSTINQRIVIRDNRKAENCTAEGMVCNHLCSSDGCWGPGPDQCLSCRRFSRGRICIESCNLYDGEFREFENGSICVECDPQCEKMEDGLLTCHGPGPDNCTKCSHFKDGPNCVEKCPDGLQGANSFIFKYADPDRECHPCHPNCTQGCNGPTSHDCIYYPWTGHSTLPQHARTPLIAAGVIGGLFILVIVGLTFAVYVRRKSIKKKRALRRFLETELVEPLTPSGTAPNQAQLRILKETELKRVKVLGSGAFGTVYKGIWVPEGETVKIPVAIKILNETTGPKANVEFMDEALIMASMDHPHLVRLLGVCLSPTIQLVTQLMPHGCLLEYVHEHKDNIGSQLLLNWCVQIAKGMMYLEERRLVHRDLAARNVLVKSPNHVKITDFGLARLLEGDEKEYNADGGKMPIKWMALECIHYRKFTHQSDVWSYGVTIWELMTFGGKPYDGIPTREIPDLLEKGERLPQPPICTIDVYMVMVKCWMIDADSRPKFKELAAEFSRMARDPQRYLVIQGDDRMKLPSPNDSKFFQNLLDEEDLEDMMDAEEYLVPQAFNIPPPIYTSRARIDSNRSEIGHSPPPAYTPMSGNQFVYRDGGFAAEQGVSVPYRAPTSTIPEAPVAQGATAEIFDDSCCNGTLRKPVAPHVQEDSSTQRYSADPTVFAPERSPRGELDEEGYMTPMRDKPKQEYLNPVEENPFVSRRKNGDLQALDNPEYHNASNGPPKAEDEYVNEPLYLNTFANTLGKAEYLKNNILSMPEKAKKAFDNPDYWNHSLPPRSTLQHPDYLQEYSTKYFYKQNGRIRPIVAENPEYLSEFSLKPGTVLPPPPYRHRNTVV
smiles,measurement,setting,value
CC(=O)[O-].CC(=O)[O-].CC(=O)[O-].CC(=O)[O-].CC(=O)[O-].CC(=O)[O-].[Zn+2].[Zn+2].[Zn+2].c1ccc(-c2csc(NCCN(CCNc3nc(-c4ccccn4)cs3)CCNc3nc(-c4ccccn4)cs3)n2)nc1.c1ccc(-c2csc(NCCN(CCNc3nc(-c4ccccn4)cs3)CCNc3nc(-c4ccccn4)cs3)n2)nc1 [[L2Zn3]6+],"% Activation, Mean value",[1],17%
same,"% Inhibition, Mean",[1],-17%
same,"% Inhibition, Run 1 / Run 2",[1],-20% and -14%
same,mean % activity,[1],117%
same,% Activity Run 1,[1]; 10 µM,120.0%
same,% Activity Run 2,[1]; 10 µM,114.0%
same,% activity,[1]; duplicate runs,120% and 114%
same,"% Inhibition, Mean",[2],33%
same,"% Inhibition, Run 1 / Run 2",[2],37% and 28%
same,mean % activity,[2],67%
same,% activity,[2]; duplicate runs,63% and 72%
same,"% Inhibition, Mean",[3]; CK1γ2,12%
same,mean % activity,[3]; CK1γ2,88%
same,% activity,"[3]; CK1γ2, duplicate runs",82% and 94%
same,"% Inhibition, Mean",[4],83%
same,"% Inhibition, Run 1 / Run 2",[4],88% and 78%
same,mean % activity,[4],17%
same,% Activity inhibition Mean,[4]; 10 µM,83.0%
same,% Activity inhibition Run 1,[4]; 10 µM,88%
same,% Activity inhibition Run 2,[4]; 10 µM,78%
same,% Activity remaining Run 1,[4]; 10 µM,12%
same,% Activity remaining Run 2,[4]; 10 µM,22%
same,% activity,[4]; duplicate runs,12% and 22%
same,"% Inhibition, Mean",[5]; HER4,3.65%
same,mean % activity,[5]; HER4,96%
same,% activity,"[5]; HER4, duplicate runs",88% and 105%
same,"% Inhibition, Mean",[6],81%
same,"% Inhibition, Run 1 / Run 2",[6],83% and 79%
same,mean % activity,[6],19%
same,% Activity inhibition Mean,[6]; 10 µM,81.0%
same,% Activity inhibition Run 1,[6]; 10 µM,83%
same,% Activity inhibition Run 2,[6]; 10 µM,79%
same,% Activity remaining Run 1,[6]; 10 µM,17%
same,% Activity remaining Run 2,[6]; 10 µM,21%
same,% activity,[6]; duplicate runs,17% and 21%
[Cu+2].[Cu+2].[Cu+2].c1ccc(-c2csc(NCCN(CCNc3nc(-c4ccccn4)cs3)CCNc3nc(-c4ccccn4)cs3)n2)nc1.c1ccc(-c2csc(NCCN(CCNc3nc(-c4ccccn4)cs3)CCNc3nc(-c4ccccn4)cs3)n2)nc1 [[L2Cu3]6+],% Inhibition Run 1,[1],83.5%
same,% Inhibition Run 2,[1],77.5%
same,"% Inhibition, Mean",[1],81%
same,mean % activity,[1],20%
same,% Inhibition Run 1,[2],41.9%
same,% Inhibition Run 2,[2],45.5%
same,"% Inhibition, Mean",[2],44%
same,mean % activity,[2],56%
same,% activity,[2]; Run 1,58.1%
same,% activity,[2]; Run 2,54.5%
same,% Inhibition Run 1,[3]; CK1γ2,23.7%
same,% Inhibition Run 2,[3]; CK1γ2,10.8%
same,"% Inhibition, Mean",[3]; CK1γ2,17%
same,mean % activity,[3]; CK1γ2,83%
same,% activity,"[3]; CK1γ2, Run 1",76.3%
same,% activity,"[3]; CK1γ2, Run 2",89.2%
same,% Inhibition Run 1,[4],83.9%
same,% Inhibition Run 2,[4],84.3%
same,"% Inhibition, Mean",[4],84%
same,mean % activity,[4],16%
same,% activity,[4]; Run 1,16.1%
same,% activity,[4]; Run 2,15.7%
same,% Inhibition Run 1,[5]; HER4,32.7%
same,% Inhibition Run 2,[5]; HER4,23.3%
same,"% Inhibition, Mean",[5]; HER4,28%
same,mean % activity,[5]; HER4,72%
same,% activity,"[5]; HER4, Run 1",67.3%
same,% activity,"[5]; HER4, Run 2",76.7%
same,% Inhibition Run 1,[6],79.7%
same,% Inhibition Run 2,[6],79.1%
same,"% Inhibition, Mean",[6],79%
same,mean % activity,[6],21%
same,% activity,[6]; Run 1,20.3%
same,% activity,[6]; Run 2,20.9%
